# Reference: PMC11836120, “A small signaling domain controls PPIP5K phosphatase activity in phosphate homeostasis” (Nature Communications, 2025)
# T1: ScVip1 phosphatase domain (ScVip1^PD E991A) (Saccharomyces cerevisiae, UniProt Q06685, E991A)
# T1 construct: gene VIP1; residues 536–1107
# T1 sequence (Q06685 536-1107 E991A): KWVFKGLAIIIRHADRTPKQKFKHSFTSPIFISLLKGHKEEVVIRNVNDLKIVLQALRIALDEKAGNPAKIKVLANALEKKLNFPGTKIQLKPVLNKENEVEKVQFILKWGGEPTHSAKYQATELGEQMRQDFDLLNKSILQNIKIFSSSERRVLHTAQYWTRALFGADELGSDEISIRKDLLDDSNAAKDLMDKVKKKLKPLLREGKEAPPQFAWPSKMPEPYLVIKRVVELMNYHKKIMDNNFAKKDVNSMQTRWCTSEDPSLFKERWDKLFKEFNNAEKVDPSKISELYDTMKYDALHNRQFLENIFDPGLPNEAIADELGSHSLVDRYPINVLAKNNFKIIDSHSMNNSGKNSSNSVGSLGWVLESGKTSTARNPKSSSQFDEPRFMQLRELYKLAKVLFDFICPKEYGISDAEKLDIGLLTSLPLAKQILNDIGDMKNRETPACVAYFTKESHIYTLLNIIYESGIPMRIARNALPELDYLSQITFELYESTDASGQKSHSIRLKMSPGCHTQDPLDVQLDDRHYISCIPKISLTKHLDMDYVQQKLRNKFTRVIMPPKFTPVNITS
# T2: ScVip1 kinase-phosphatase tandem domains (ScVip1^KD-PD) (Saccharomyces cerevisiae, UniProt Q06685)
# T2 construct: gene VIP1
# T2 sequence (Q06685 186-1107): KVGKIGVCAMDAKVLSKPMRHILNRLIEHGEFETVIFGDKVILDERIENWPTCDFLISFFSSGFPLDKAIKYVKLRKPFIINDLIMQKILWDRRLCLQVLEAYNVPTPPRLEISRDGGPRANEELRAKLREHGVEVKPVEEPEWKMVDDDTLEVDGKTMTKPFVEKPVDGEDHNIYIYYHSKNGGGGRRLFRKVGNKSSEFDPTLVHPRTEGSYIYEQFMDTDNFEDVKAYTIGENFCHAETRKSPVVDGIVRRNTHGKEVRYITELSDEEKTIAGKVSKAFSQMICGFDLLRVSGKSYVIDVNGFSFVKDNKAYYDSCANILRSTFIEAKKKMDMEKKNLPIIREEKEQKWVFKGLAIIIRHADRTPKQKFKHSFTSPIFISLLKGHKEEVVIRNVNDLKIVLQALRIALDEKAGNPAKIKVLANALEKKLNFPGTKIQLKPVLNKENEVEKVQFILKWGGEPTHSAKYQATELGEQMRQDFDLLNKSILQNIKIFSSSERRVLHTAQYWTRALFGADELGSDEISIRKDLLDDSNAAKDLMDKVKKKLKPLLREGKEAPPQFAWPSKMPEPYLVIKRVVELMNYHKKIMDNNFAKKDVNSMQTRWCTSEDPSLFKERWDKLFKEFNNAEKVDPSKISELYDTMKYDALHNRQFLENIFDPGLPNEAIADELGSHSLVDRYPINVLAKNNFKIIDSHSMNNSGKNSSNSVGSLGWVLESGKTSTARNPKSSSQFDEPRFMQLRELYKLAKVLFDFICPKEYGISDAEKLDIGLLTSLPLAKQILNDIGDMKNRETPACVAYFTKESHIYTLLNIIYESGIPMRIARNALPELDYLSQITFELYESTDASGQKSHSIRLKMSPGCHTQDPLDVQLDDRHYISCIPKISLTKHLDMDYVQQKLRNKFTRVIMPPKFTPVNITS
# T3: ScVip1 phosphatase domain (ScVip1^PD) (Saccharomyces cerevisiae, UniProt Q06685)
# T3 construct: gene VIP1; residues 536–1107
# T3 sequence (Q06685 536-1107): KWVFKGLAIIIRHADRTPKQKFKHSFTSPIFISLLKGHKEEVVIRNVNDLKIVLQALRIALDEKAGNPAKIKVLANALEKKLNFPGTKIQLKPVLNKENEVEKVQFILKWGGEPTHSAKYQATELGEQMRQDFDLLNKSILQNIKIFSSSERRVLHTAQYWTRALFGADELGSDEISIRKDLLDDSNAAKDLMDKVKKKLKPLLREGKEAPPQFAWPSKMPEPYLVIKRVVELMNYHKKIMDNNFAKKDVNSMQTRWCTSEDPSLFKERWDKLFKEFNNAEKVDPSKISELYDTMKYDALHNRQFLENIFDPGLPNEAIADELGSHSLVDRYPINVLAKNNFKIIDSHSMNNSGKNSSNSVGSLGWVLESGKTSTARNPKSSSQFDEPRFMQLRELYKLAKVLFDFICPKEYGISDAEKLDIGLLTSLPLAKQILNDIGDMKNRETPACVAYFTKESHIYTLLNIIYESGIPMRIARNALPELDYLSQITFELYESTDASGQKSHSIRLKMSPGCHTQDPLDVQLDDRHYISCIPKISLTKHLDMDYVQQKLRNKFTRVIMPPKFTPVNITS
# Tests used:
# [1] = molecular target: T1, ScVip1 phosphatase domain (ScVip1^PD E991A); test: NMR and malachite green phosphatase assays; type: biochemical
# [2] = molecular target: T4, ScVip1 kinase domain (ScVip1^KD) (Saccharomyces cerevisiae, UniProt Q06685); test: co-crystal structure, […] Å (crystallized with […] ADP and […] MgCl2); type: binding
# T4 construct: gene VIP1; residues 186–522
# [3] = molecular target: T2, ScVip1 kinase-phosphatase tandem domains (ScVip1^KD-PD); test: HDX-MS, […] molar excess
# [4] = molecular target: T3, ScVip1 phosphatase domain (ScVip1^PD); test: NMR time course of […],5-InsP8 hydrolysis; type: biochemical
# [5] = substrate: O=P(O)(O)O[C@@H]1[C@@H](OP(=O)(O)O)[C@@H](OP(=O)(O)O)[C@@H](OP(=O)(O)OP(=O)(O)O)[C@H](OP(=O)(O)O)[C@H]1OP(=O)(O)O; test: malachite green and NMR phosphatase assays, Michaelis-Menten KM; type: biochemical, Saccharomyces cerevisiae
# [6] = substrate: O=P(O)(O)O[C@@H]1[C@@H](OP(=O)(O)O)[C@H](OP(=O)(O)OP(=O)(O)O)[C@@H](OP(=O)(O)O)[C@H](OP(=O)(O)OP(=O)(O)O)[C@@H]1OP(=O)(O)O; test: as above; type: biochemical, Saccharomyces cerevisiae; conditions: phosphatase active site (RHxxR motif) and GAF-domain substrate channel
molecule,measurement,setting,value
O=P(O)(O)O[C@@H]1[C@@H](OP(=O)(O)O)[C@@H](OP(=O)(O)O)[C@@H](OP(=O)(O)OP(=O)(O)O)[C@H](OP(=O)(O)O)[C@H]1OP(=O)(O)O [1-InsP7],NMR and malachite green phosphatase assays,[1],Glu991 to Ala mutant readily accepts 1-InsP7 as a substrate in both NMR and malachite green-based phosphatase assays
Nc1ncnc2c1ncn2[C@@H]1O[C@H](COP(=O)(O)OP(=O)(O)O)[C@@H](O)[C@H]1O [ADP],"co-crystal structure, 1.18 Å (crystallized with 5 mM ADP and 20 mM MgCl2)",[2],The structure of ScVip1^KD in complex with adenosine diphosphate revealed the typical ATP-grasp fold and substrate binding sites
"Nc1ncnc2c1ncn2[C@@H]1O[C@H](CO[P@](=O)(O)O[P@](=O)(O)NP(=O)(O)O)[C@@H](O)[C@H]1O [AMPPNP, AMP-PNP]","HDX-MS, 100-fold molar excess",[3],Addition of an ATP substrate analog reveals additional protected regions in the vicinity of the active site of the kinase domain
O=P(O)(O)O [inorganic phosphate],"NMR time course of 1,5-InsP8 hydrolysis",[4],"ScVip1^PD is inhibited by Pi in a concentration-dependent manner, as inferred from NMR-based assays"
"ScVip1 phosphatase domain (ScVip1^PD) (Saccharomyces cerevisiae S288C) (protein, residues 536–1107) KWVFKGLAIIIRHADRTPKQKFKHSFTSPIFISLLKGHKEEVVIRNVNDLKIVLQALRIALDEKAGNPAKIKVLANALEKKLNFPGTKIQLKPVLNKENEVEKVQFILKWGGEPTHSAKYQATELGEQMRQDFDLLNKSILQNIKIFSSSERRVLHTAQYWTRALFGADELGSDEISIRKDLLDDSNAAKDLMDKVKKKLKPLLREGKEAPPQFAWPSKMPEPYLVIKRVVELMNYHKKIMDNNFAKKDVNSMQTRWCTSEDPSLFKERWDKLFKEFNNAEKVDPSKISELYDTMKYDALHNRQFLENIFDPGLPNEAIADELGSHSLVDRYPINVLAKNNFKIIDSHSMNNSGKNSSNSVGSLGWVLESGKTSTARNPKSSSQFDEPRFMQLRELYKLAKVLFDFICPKEYGISDAEKLDIGLLTSLPLAKQILNDIGDMKNRETPACVAYFTKESHIYTLLNIIYESGIPMRIARNALPELDYLSQITFELYESTDASGQKSHSIRLKMSPGCHTQDPLDVQLDDRHYISCIPKISLTKHLDMDYVQQKLRNKFTRVIMPPKFTPVNITS",Km,[5],70 µM
same,Km,[6],45 µM
